The source of these data is PubChem BioAssay (NCI).

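Assay format: 96-well plates, 48-hour exposure. TGI denotes the concentration required for complete inhibition of growth.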 Where a SMILES comes first, the peptide text is derived from it. The star is where a group is joined. Boc = CC(C)(C)OC(=O)*; OBn = c1ccc(CO*)cc1; Bn = c1ccc(C*)cc1 Some results are limits rather than exact numbers.

Test in all cases: growth of human tumour cells (NCI), 48 h
Assay [1] concerns COLO 205 colon.
In assay [2] the test system is EKVX NSCLC.
Assay [3] concerns ACHN renal.
Assay [4] relates to BT-549 breast.
Assay [5] concerns SW-620 colon.
For assay [6], the system named is HOP-62 NSCLC.
Assay [7] concerns TK-10 renal.
The subject of assay [8] is NCI/ADR-RES ovarian.
In assay [9] the test system is SF-539 CNS.

`Nc1nc(-c2ccccc2)cc(-c2ccc(F)cc2)c1-c1ccc(Cl)cc1`: the TGI in assay [1], in assay [2], in assay [3], in assay [4], in assay [5] and in assay [6] was > 100 µM in each case. Also, the TGI in assay [7] and in assay [8] was > 100 µM throughout.
As to `OCCOCn1nc(-c2ccccc2)nc1-c1cnccn1`, the TGI in [1], in assay [2], in [9], in assay [4], in [5] and in assay [6] was > 100 µM each time. The TGI in [7] and in [8] was > 100 µM each time.
As for `O=c1[nH]c(=O)n(COCCO)cc1-c1ccccc1`, the TGI in [1], in [2], in assay [3], in [5], in assay [6] and in assay [7] was > 100 µM throughout. Moreover, the TGI in assay [8] is > 100 µM.
As for `Nc1c(Cl)ncnc1NCC1(CO)CCC1`, the TGI in [1], in assay [2], in assay [9], in assay [3], in [4] and in assay [5] was > 100 µM throughout. Also, the TGI in assay [6], in [7] and in assay [8] was > 100 µM throughout.
For the molecule `NC(=O)c1ccc(N)nc1`, the TGI in [1] is > 400 µM; in assay [2] it was > 400 µM; in assay [9], 28.3 µM; in assay [3] it was > 400 µM; in [4], > 400 µM; in [5], > 400 µM. Besides, the TGI in assay [6] is > 247 µM; in assay [7] it was > 400 µM; in assay [8], > 400 µM.
For the molecule `NCCCCN(CCCN)C(=O)OCc1ccccc1`, the TGI in assay [1], in [2], in assay [9], in assay [3], in assay [4] and in assay [5] was > 100 µM in each case. Besides, the TGI in assay [6], in assay [7] and in [8] was > 100 µM each time.
For the molecule `Cn1c(=O)c2[nH]c(Nc3ccccc3)nc2n(C)c1=O`, the TGI in assay [1], in assay [2], in [5], in assay [6] and in assay [7] was > 10 µM in each case.
Regarding `CN(C)c1ccc(C(=C2C=CC(=[N+](C)C)C=C2)c2c(O)c(S(=O)(=O)[O-])cc3cc(S(=O)(=O)O)ccc23)cc1`, the TGI in assay [1], in assay [2], in assay [9], in [3], in assay [4] and in assay [5] was > 100 µM each time. Further, the TGI in assay [6], in assay [7] and in assay [8] was > 100 µM in each case.
For `CC(=O)O/N=C1\C=Cc2c(no[n+]2[O-])C1=O`, the TGI in assay [1] is 22 µM; in [2] it was 31.5 µM; in assay [9] it was 31.3 µM; in [3] it was 30.9 µM; in assay [5] it was 9.04 µM; in assay [6], > 100 µM. Besides, the TGI in [7] was found to be 29 µM; in assay [8] it was 68.1 µM.
Take `NC(=O)c1ncn(C2CCC(CP(=O)(O)O)C2)c1N` (stereo not given): the TGI in assay [1], in [2], in assay [9], in assay [3], in assay [5] and in [6] was > 100 µM each time. In addition, the TGI in [7] and in assay [8] was > 100 µM each time.
As for `O=C(CSCC(=O)N/N=C/c1ccc(F)cc1)N/N=C/c1ccc(F)cc1`, the TGI in assay [1], in [2], in assay [9], in [3], in assay [5] and in assay [6] was > 100 µM throughout. Also, the TGI in assay [7] and in [8] was > 100 µM each time.
As to `CCNc1nc2ccccc2nc1NCC`, the TGI in assay [1], in assay [2], in assay [9], in assay [3], in assay [4] and in assay [5] was > 100 µM throughout. Besides, the TGI in assay [7] and in assay [8] was > 100 µM each time.
For the molecule `NC(=O)NC1=NCCC(=O)N1CCc1c[nH]c2ccccc12`, the TGI in assay [1] worked out at 27.9 µM; in [2], 48.6 µM; in assay [9] it was 30.9 µM; in [3] it was 65.1 µM; in assay [5], 57.7 µM; in assay [6], 37.6 µM. Further, the TGI in assay [7] stood at 48.6 µM; in [8], 52.8 µM.
Consider `COc1cc(/C=C/C(=O)OC[C@]23O[C@H]2[C@@H](OC2OC(C)C(O)C(O)C2O)C2C=CO[C@@H](OC4OC(CO)C(O)C(O)C4O)C23)ccc1O` (stereo not given in full), for which the TGI in assay [1], in assay [2], in assay [3], in assay [4], in assay [5] and in [6] was > 100 µM in each case. Besides, the TGI in assay [7] and in [8] was > 100 µM in each case.
With `C=CCn1c(-c2ccc(N=NNc3ccc(-c4n[nH]c(=S)n4CC=C)cc3)cc2)n[nH]c1=S`, the TGI is > 100 µM in [1]; > 100 µM in assay [2]; 5.09 µM in [3]; 6.68 µM in [4]; > 100 µM in [5]; 14.8 µM in assay [6]. Besides, the TGI in [7] was > 100 µM; in [8] it was 61.4 µM.
`CCCCOP(=O)(OCCCC)C(NS(=O)(=O)c1ccccc1)(C(=O)OCC)C(F)(F)F` (stereo not given): the TGI is 38.7 µM in assay [1]; > 100 µM in assay [2]; 38.3 µM in [9]; 85.1 µM in [3]; 61.4 µM in assay [6]; 87.6 µM in [7]. The molecule also had a TGI in assay [8] of 64.6 µM.
Turning to `COc1cc(C(C)(C)C)c(OC(=O)/C=C/C(=O)O/C=C/[N+](=O)[O-])c(C(C)(C)C)c1`, the TGI in assay [1], in assay [2], in assay [9], in [3], in [5] and in [6] was > 100 µM in each case. Further, the TGI is > 100 µM in [7] and 57.8 µM in assay [8].
On to `COc1cc2[nH]c(=O)[nH]c2c2c(C)c[nH]c12`, for which the TGI in assay [1], in assay [2], in assay [3], in assay [4], in assay [5] and in assay [6] was > 100 µM throughout. For the same molecule, the TGI in assay [7] and in [8] was > 100 µM throughout.
Regarding `CC1CN=C(c2ccc3c(c2)Cc2cc(C4=NCC(C)N4)ccc2-3)N1` (stereo not given), the TGI in [1], in [2], in assay [3], in assay [4], in [5] and in assay [6] was > 100 µM each time. Further, the TGI in assay [7] and in assay [8] was > 100 µM each time.
On to `COC(CO[Si](C)(C)N[Si](C)(C)OCC(OC)c1ccccc1)c1ccccc1` (stereo not given), for which the TGI in [1], in [2], in [3], in [4], in assay [5] and in assay [6] was > 100 µM throughout. Moreover, the TGI in assay [7] and in assay [8] was > 100 µM in each case.
`COC(=O)c1ccc2c(c1)CC1(C2)Cc2ccc3c(c2C1)CCC3` (stereo not given): the TGI in assay [1] is 32.1 µM; in assay [2] it was > 100 µM; in assay [9], > 100 µM; in assay [3], > 100 µM; in assay [5] it was > 100 µM; in assay [6], 93 µM. In assay [7], the TGI is > 100 µM.
For `CS(=O)(=O)c1ccc(C2=C(c3ccccc3)C(=O)OC2)cc1`, the TGI in [1], in [2], in assay [9], in assay [3], in assay [5] and in [6] was > 100 µM each time. The TGI in assay [7] and in assay [8] was > 100 µM each time.
As for `Clc1ccc2nc3c(c(-c4ccccc4)nn3-c3ccccc3)c(-c3ccccc3)c2c1`, the TGI in [1], in [2], in assay [3], in assay [4], in assay [5] and in assay [6] was > 100 µM each time. Besides, the TGI in [7] and in [8] was > 100 µM throughout.
In the case of `CO/C=C(/C(=O)OC)c1ccccc1[C@H]1C[C@@H]1c1ccc(OC)cc1`, the TGI was found to be 25.8 µM in [1]; 50.2 µM in assay [2]; 38 µM in [9]; 74.2 µM in assay [3]; 46.6 µM in assay [4]; 98 µM in [6]. The TGI in assay [7] is > 100 µM; in assay [8] it was 52.6 µM.
On to `CC(C)OCC(O)COc1cc(=O)oc2ccccc12` (stereo not given), for which the TGI in assay [1], in [2], in assay [3], in assay [5], in [6] and in assay [7] was > 100 µM in each case. Moreover, the TGI in assay [8] is > 100 µM.
For `S=c1sc2ccccc2n1CN1CCN(Cc2ccccc2)CC1`, the TGI in assay [1], in assay [2], in [9], in [3], in [4] and in assay [5] was > 100 µM in each case. The TGI in assay [6] and in [8] was > 100 µM each time.
For the molecule `CC(C)CC(NC(=O)C(CCC(=O)OCc1ccccc1)NC(=O)OC(C)(C)C)C(=O)NC(COCc1ccccc1)C(=O)NC(Cc1ccccc1)C(=O)O` (stereo not given) (Boc-E(OBn)LS(Bn)F-OH; configuration not given here), the TGI in assay [1], in assay [2], in assay [3], in assay [4], in [5] and in assay [6] was > 100 µM throughout. For the same molecule, in assay [7], the TGI was > 100 µM.
With `COc1ccc(NC(=O)c2cc(NC(=O)/C=C/c3ccccc3)c(OC)c(OC)c2)cc1`, the TGI in assay [1], in assay [2], in assay [9], in assay [3], in [5] and in [6] was > 100 µM throughout. Besides, the TGI in assay [7] and in assay [8] was > 100 µM each time.
As to `O=C(O)c1cc(/C=C/c2ccc(O)c(O)c2)ccc1O`, the TGI in [1], in [2], in assay [9], in assay [3], in assay [6] and in assay [7] was > 100 µM in each case. Besides, in assay [8], the TGI is > 100 µM.
In the case of `C(=C/c1ccc2nc(-c3ccc(/C=C/C=N/NC4=NCCCN4)cc3)cn2c1)/C=N/NC1=NCCCN1`, the TGI is > 100 µM in assay [1]; 35.7 µM in [2]; > 100 µM in [9]; > 100 µM in assay [3]; > 100 µM in assay [4]; > 100 µM in assay [6]. The values for the TGI in assay [7] and in [8] were > 100 µM and 51.7 µM, respectively.
`C=CCCCN1C(=O)C2C3c4ccccc4C(C=O)(c4ccccc43)C2C1=O` (stereo not given): the TGI was 25.2 µM in [1]; 20.7 µM in [2]; > 100 µM in assay [3]; 27.1 µM in assay [5]; 28.2 µM in [6]; 30.2 µM in [7]. In addition, in assay [8], the TGI was found to be 58.2 µM.
Turning to `O=C(/C=C/c1ccccc1O)CC(=O)/C=C/c1ccccc1O`, the TGI in assay [2] stood at 31.3 µM; in assay [9] it was 15.7 µM; in assay [3] it was 25.9 µM; in assay [4], 45.7 µM; in [5], 24 µM; in assay [6] it was 19.4 µM. Also, the TGI in assay [7] is > 100 µM; in assay [8], 14.5 µM.
